In ChEMBL document CHEMBL4184211, “Regioselectivity of thiouracil alkylation: Application to optimization of Darapladib synthesis” (Bioorg Med Chem Lett, 2018):
pIC50: −log10 of the molar value.

Key:
[1] = biological target: T1, Platelet-activating factor acetylhydrolase (Homo sapiens, UniProt Q13093); experiment: (§1) Inhibition of Lp-PLA2 in human plasma LDL fractions using 2-thio platelet-activating factor as substrate by […] dye based spectrophotometry; conditions: for pIC50: read-out: IC50
T1 sequence (Q13093 whole entry): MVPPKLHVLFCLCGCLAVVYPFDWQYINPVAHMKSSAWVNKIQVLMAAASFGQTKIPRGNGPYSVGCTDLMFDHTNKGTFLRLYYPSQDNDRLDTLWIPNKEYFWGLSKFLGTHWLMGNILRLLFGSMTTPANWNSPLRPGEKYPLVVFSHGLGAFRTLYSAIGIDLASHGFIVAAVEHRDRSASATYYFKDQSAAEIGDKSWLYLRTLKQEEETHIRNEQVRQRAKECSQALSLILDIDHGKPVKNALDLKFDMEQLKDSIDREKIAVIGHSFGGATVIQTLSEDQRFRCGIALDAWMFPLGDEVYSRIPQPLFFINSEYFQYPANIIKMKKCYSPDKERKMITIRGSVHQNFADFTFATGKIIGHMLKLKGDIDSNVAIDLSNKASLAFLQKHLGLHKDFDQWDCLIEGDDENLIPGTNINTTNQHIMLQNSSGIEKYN

[2] = biological target: T2, Platelet-activating factor acetylhydrolase (Homo sapiens) (UniProt Q13093); experiment: as §1
T2 sequence (whole entry): T1 sequence (Q13093 whole entry)

pIC50 [1] | IC50 [1] | inhibition [2] | Compound
< 7.00 | – | – | CCN(CC)CCN(Cc1ccc(-c2ccc(C(F)(F)F)cc2)cc1)C(=O)COc1nc(SCc2ccc(F)cc2)nc2c1CCC2
– | Not Active | – | CC(C)(C)OC(=O)COc1nc(SCc2ccc(F)cc2)nc2c1CCC2
7.28 | – | Dose-dependent effect | CC(C)(C)OC(=O)Cn1c(SCc2ccc(F)cc2)nc(=O)c2c1CCC2
